Laboratory results as given in PubChem BioAssay AID1645868 (Buhrlage Lab, Dana-Farber Cancer Institute and Novartis …, 2021).
Activity calls are given as the source filed them.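 The calls were made as follows: active = maximal percent inhibition of the deubiquitinase OTUD3 of at least 30% across the tested doses; inactive = the rest.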

What follows are compounds tested against OTU domain-containing protein 3 (Homo sapiens) (UniProt Q5T2D3) (assay: Validation of screening hits, potency titration, in vitro enzymatic, OTU domain-containing protein 3 DUB inhibitors (AID 1645868)). Conditions: purified OTUD3, ubiquitin-rhodamine cleavage fluorescence, 2 h.
Sequence of OTU domain-containing protein 3 (Homo sapiens) (Q5T2D3 whole entry, looked up, the tested form may be a part): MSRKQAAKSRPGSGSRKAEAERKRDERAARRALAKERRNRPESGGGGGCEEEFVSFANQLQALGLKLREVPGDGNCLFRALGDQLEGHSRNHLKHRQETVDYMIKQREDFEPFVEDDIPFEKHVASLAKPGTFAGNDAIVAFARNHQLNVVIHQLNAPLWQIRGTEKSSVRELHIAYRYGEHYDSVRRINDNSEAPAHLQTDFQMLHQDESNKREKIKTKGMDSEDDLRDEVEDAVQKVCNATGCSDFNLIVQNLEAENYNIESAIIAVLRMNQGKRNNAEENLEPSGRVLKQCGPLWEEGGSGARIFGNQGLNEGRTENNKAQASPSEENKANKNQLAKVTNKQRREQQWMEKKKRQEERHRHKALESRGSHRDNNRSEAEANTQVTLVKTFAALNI

| SMILES | IC50 |
| --- | --- |
| Cn1c(=O)cc(SCC(=O)NC2CCN(Cc3ccccc3)CC2)c2ccc(Cl)cc21 | > 50 µM (inactive) |
| Cc1ccn(-c2ccc(NC(=O)c3ccccc3Sc3ccccc3C#N)cc2)n1 | 44.5 µM |
| O=S(=O)(c1ccc(F)cc1)N1CCCC1c1ccnc(Nc2cnccn2)n1 (stereo unspecified) | > 50 µM (inactive) |
| CO[C@H]1CC[C@H](O)c2c1oc1c3c4c(c(O)c1c2=O)-c1c(cc2c(Cl)c(C)n(N)c(=O)c2c1O)C[C@@H]4OCO3 | 26.6 µM |
| COc1ccccc1OCC(=O)Nc1ccc2c(c1)CCC(=O)N2Cc1ccccc1 | > 50 µM (inactive) |
| Cc1ccc(-n2nc(C(=O)Nc3ccc(C)cn3)c3ncn(C)c(=O)c32)cc1 | 2.1 µM |
| Cc1ccc(/C=C/C(=O)Nc2ccc3c(c2)OCCO3)cc1 | > 50 µM (inactive) |
| CNC(=O)C1CN(C(=O)c2ccc(OC)cc2)CC12CCCC2 (stereo unspecified) | > 50 µM (inactive) |
| CCc1nc(N2CCCC2=O)sc1C(=O)Nc1cccc(C(C)=O)c1 | > 50 µM (inactive) |
| O=C(Cc1noc2ccccc12)NCC(=O)Nc1ccc(Cl)cc1 | 22.2 µM |
| Cc1ccc(-c2nc(Cn3nnc(-c4nc(-c5ccccn5)no4)c3C)c(C)o2)cc1 | > 50 µM (inactive) |
| COc1cccc(NC(=O)CSc2nnc(-c3cc4cccc(OC)c4o3)n2C)c1 | 35.9 µM |
| O=C(Nc1ccc(-c2nnc3n2CCCCC3)cc1)c1ccc2c(c1)OCO2 | > 50 µM (inactive) |
| O=C(NCc1cccnc1)c1cnn2c(C(F)(F)F)cc(-c3ccccc3)nc12 | > 50 µM (inactive) |
| COc1cc(NC(=O)Cc2ccccc2)ccc1NC(=O)c1cc2ccccc2o1 | 16.4 µM |
| COc1ccc(CCNC(=O)c2cc3ccccc3s2)cc1OC | > 50 µM (inactive) |
| CCOc1ccccc1C(=O)Nc1ccc2c(c1)Sc1ncccc1C(=O)N2C | > 50 µM (inactive) |
| Cc1cccc(NC(=O)Nc2ccc(C)n(CC(=O)Nc3ccccc3)c2=O)c1 | > 50 µM (inactive) |
| CCC(=O)Nc1ccccc1-c1nc2ccccc2n(CC(=O)Nc2cc(OC)ccc2OC)c1=O | 19 µM |
| Cc1cc(=O)n2c3c(c4c(cc13)c(CO)cc(=O)n4C)OC2 | > 50 µM (inactive) |
| CNc1nc2c(c(=O)n1C)CN(C(=O)Nc1cccc3ccccc13)CC2 | > 50 µM (inactive) |

| SMILES | IC50 |
| --- | --- |
| CCn1c(SCC(=O)c2c(N)n(CC(C)C)c(=O)n(C)c2=O)nnc1-c1ccccc1 | 25.6 µM |
| Cc1ncc(CO)c2c1Oc1nc(-c3cccc(Cl)c3)nc(SCC(=O)N3CCCCC3)c1C2 | > 5 µM (inactive) |
| COc1ccc(-c2cc(-c3nnc(CSc4nc5ccccc5n4C)o3)c3ccccc3n2)cc1OC | > 50 µM (inactive) |
| O=S(=O)(Cc1nnc(-c2ccccc2C(F)(F)F)o1)c1ccc(Cl)cc1 | > 50 µM (inactive) |
| CCC(=O)Nc1ccc(-c2nc(Cn3cc(C)cn3)c(C)o2)cc1 | > 50 µM (inactive) |
| C/C1=C/C=C/[C@H](C)[C@H](O)[C@@H](C)[C@@H](O)[C@@H](C)[C@H](O)[C@H](C)[C@@H](O)[C@@H](C)/C=C(/C)C(=O)c2c(O)c(C)cc3c2C(=O)C=C(NC1=O)C3=O | > 50 µM (inactive) |
| CCc1nc2c(NC(=O)Nc3cccc(C(=O)OC)c3)cccn2n1 | > 50 µM (inactive) |
| N#Cc1c(N)nc2c(c1N)C(c1ccccc1)CO2 (stereo unspecified) | > 50 µM (inactive) |
| O=S(=O)(c1ccccc1)N1CCN2Cc3ccccc3N(Cc3ccccc3)CC2C1 (stereo unspecified) | > 50 µM (inactive) |
| CC1=C(c2ccc(Cl)cc2)S(=O)(=O)NC1=NCC(=O)Nc1ccc(F)cc1 | > 50 µM (inactive) |
| COc1ccc(CN=C2NS(=O)(=O)C(c3ccc(F)cc3)=C2C)cc1OC | > 50 µM (inactive) |
| COc1ccc(-c2nc(Cn3nnc(C(=O)Nc4ccc(C)c(C)c4)c3N)c(C)o2)cc1 | 3.46 µM |
| COc1ccc2[nH]cc(S(=O)(=O)c3ccc(C)c(F)c3)c(=O)c2c1 | 44.5 µM |
| Cc1cccc(NC(=O)Cn2cnc(-c3noc(-c4ccccc4)n3)c2)c1C | 2.42 µM |
| c1ccc(-c2noc(-c3cc(-c4ccncc4)nc4ccccc34)n2)nc1 | > 50 µM (inactive) |
| NS(=O)(=O)c1ccc(CNS(=O)(=O)c2ccc(-c3ccccn3)s2)cc1 | 24.7 µM |
| Cc1nc(Nc2ncc(C)s2)cc(C2CN(C(=O)Cc3ccccc3)CCO2)n1 (stereo unspecified) | > 50 µM (inactive) |
| Cn1cc(CCNC(=O)c2cc3ccccc3[nH]2)c2cccnc21 | > 50 µM (inactive) |
| COc1cccc(N2CCN(C(=O)C3CCN(c4nc(NC(C)=O)ns4)CC3)CC2)c1 | > 50 µM (inactive) |
| CCOc1ccc(C(=O)Cn2c(=O)n(CC3CCCO3)c(=O)c3cc(OC)c(OC)cc32)cc1Cl (stereo unspecified) | 45.1 µM |
| CC(OC(=O)c1ccc2c(c1)OCCO2)C(=O)NCC1CCCCC1 (stereo unspecified) | 34.2 µM |

| SMILES | IC50 |
| --- | --- |
| O=C(NCc1cccc(NC(=O)C2CC2)c1)Nc1cccc2ccccc12 | 30.7 µM |
| CCOC(=O)c1cc2c(ccn2C)n1CC(=O)N1CCC(C)CC1 | > 50 µM (inactive) |
| CC(C)c1cc(NCc2ccccc2)n2nc(-c3cccnc3)nc2n1 | 25.4 µM |
| CCCCCC(O)c1c(O)cc2c(c1O)C(=O)c1c(O)cc(O)cc1C2=O (stereo unspecified) | > 50 µM (inactive) |
| CC(=O)N1CCc2cc(S(=O)(=O)NCc3ccc(C)cc3)ccc21 | > 50 µM (inactive) |
| COCCN(C1CCN(CCc2ccc(Cl)cc2)CC1)S(=O)(=O)c1cccc2cccnc12 | > 50 µM (inactive) |
| CC(C)(C)C(=O)Nc1ccc(C(=O)Nc2cccc(-c3nnc(-c4ccccc4)o3)c2)cc1 | 16.8 µM |
| Cc1nc2ccc(NC(=O)COc3ccccc3[N+](=O)[O-])cc2s1 | 19.9 µM |
| CCOc1ccc(-c2ccc3nnc(SCC(=O)Nc4cccc(C(C)=O)c4)n3n2)cc1 | > 50 µM (inactive) |
| COc1cc(Cn2cnc3c([nH]c4ccc(Br)cc43)c2=O)cc(OC)c1 | 12.7 µM |
| COc1ccccc1S(=O)(=O)N1CC[C@@H]2CN(C)[C@@H]2C1 | > 50 µM (inactive) |
| O=C1Oc2nc3ccccc3cc2CN1Cc1ccco1 | 34.4 µM |
| Cn1c(C(=O)NCc2ccccn2)cc2c(=O)[nH]c3ccccc3c21 | > 50 µM (inactive) |
| CNC(=O)c1cc2c(=O)n3cccc(C)c3nc2n1Cc1ccccc1 | > 50 µM (inactive) |
| COCC(=O)Nc1cc(F)c2nc(N3CCOCC3)ccc2c1 | > 50 µM (inactive) |
| Cc1cc(C)c2sc(N(CCCn3ccnc3)C(=O)Cc3ccccc3)nc2c1 | 24 µM |
| CC1CCc2sc(NC(=O)c3ccccc3Oc3ccccc3)c(C(N)=O)c2C1 (stereo unspecified) | 31.6 µM |
| Cc1nnc(NC(=O)C2CCN(c3ccc(S(N)(=O)=O)cc3[N+](=O)[O-])CC2)o1 | 15.6 µM |
| Cc1ccc(NC2=NC(c3ccco3)n3c(nc(C)cc3=O)N2)c(C)c1 (stereo unspecified) | > 50 µM (inactive) |
| Cc1ccc(NC(=O)Cc2nnc3c(-c4nc(C5CC5)no4)cccn23)cc1 | 31.3 µM |

The remaining lines, values ahead:

| IC50 | SMILES |
| --- | --- |
| 44.7 µM | COc1ccccc1CNC(=O)Nc1cccc2ccccc12 |
| > 50 µM (inactive) | Cc1cc(C)c2cc(CN(CCc3ccccc3)C(=O)Nc3ccccc3)c(=O)[nH]c2c1 |
| > 50 µM (inactive) | CS(=O)(=O)N1CCCc2cc(C(=O)Nc3ccc(Oc4ccccc4)cc3)ccc21 |
| > 50 µM (inactive) | O=C(NCCc1ccccc1)c1nnn(Cc2cccc(Cl)c2)c1-n1cccc1 |
| > 50 µM (inactive) | CCCn1c(=O)n(CC(=O)c2ccccc2F)c2c(C(N)=O)nc(-c3ccco3)nc21 |
| > 50 µM (inactive) | Cc1cc(=O)oc2cc(OCC(=O)Nc3cc(Cl)ccc3N3CCOCC3)ccc12 |
| > 50 µM (inactive) | CN1CCN(c2ncnc3c2oc2ccc(Cl)cc23)CC1 |
| > 50 µM (inactive) | Cc1cc(C2CC(=O)Nc3c2c(C)nn3-c2nc3ccccc3[nH]2)c(C)s1 (stereo unspecified) |
| > 50 µM (inactive) | CCn1cnc2c1c(=O)n(CC(=O)NCc1ccccc1Cl)c(=O)n2Cc1ccccc1 |
| > 50 µM (inactive) | Cc1cnc(CN2CCCC(c3ccc4cn[nH]c4n3)C2)cn1 (stereo unspecified) |
| > 50 µM (inactive) | Cc1ccccc1NC(=O)c1ccn(COc2ccc(Cl)cc2)n1 |
| > 50 µM (inactive) | CC(C)Cc1nc2oc3c(N(C)CCO)ncnc3c2c2c1CCC2 |
| > 50 µM (inactive) | C=C1CCC2[C@](C)(CCC[C@]2(C)C(=O)OC)[C@H]1CCc1ccoc1CNC(C)C (stereo partly specified) |
| > 50 µM (inactive) | COc1ccc(-c2cc3c(=O)n(CC(=O)Nc4ccccc4F)ccn3n2)cc1OC |
| > 50 µM (inactive) | CCn1c(SCC(=O)N2c3ccccc3CC2C)nnc1-c1ccc2c(c1)OCCO2 (stereo unspecified) |
| 26.9 µM | CCCC1Cc2c(sc3nc(SCC)nc(N)c23)CO1 (stereo unspecified) |
| > 50 µM (inactive) | COCCCN1CCS(=O)(=O)c2c(Cl)c(F)nc(Oc3ccc(C#N)cc3)c21 |

| IC50 | SMILES |
| --- | --- |
| > 50 µM (inactive) | Cc1ccc(CN2C(=O)c3cc4ccccc4n3CC2(C)C(=O)NCc2ccccc2)o1 (stereo unspecified) |
| > 50 µM (inactive) | CCc1nc(-c2cccc(NC(=O)c3ccc(C#N)cc3F)c2)no1 |
| > 50 µM (inactive) | COc1ccc(C(=O)Nc2cc(-c3ccccn3)no2)cn1 |
| > 50 µM (inactive) | O=S(=O)(Nc1ccc2oc(-c3ccncc3)nc2c1)c1ccccc1 |
| > 50 µM (inactive) | CC(C)C1Cc2c(sc3nc(SCC(=O)Nc4cccc5ccccc45)nc(N)c23)CO1 (stereo unspecified) |
| > 50 µM (inactive) | CC1OC2CC(O)C1(O)C1=C2C(O)=C(C(N)=O)C(=N)C1=O (stereo unspecified) |
| > 50 µM (inactive) | COc1ccccc1OCCNC(=O)c1cc(C2CC2)nc2c1cnn2C(C)C |
| 30.9 µM | O=C(CCc1c[nH]c2ccccc12)Nc1ccc(N2CCOCC2)cc1 |
| > 50 µM (inactive) | N#Cc1ccccc1OCc1csc(-c2ccccc2)n1 |
| > 50 µM (inactive) | Cc1ccc(C)c(S(=O)(=O)N2CCN(c3ccc4nnc(-c5ccco5)n4n3)CC2)c1 |
| 28.7 µM | COc1ccc(NC(=O)CC(=O)c2ccc([N+](=O)[O-])cc2)cc1S(=O)(=O)Nc1ccc(Br)cc1 |
| > 50 µM (inactive) | CNc1nc2c(c(=O)n1Cc1ccccc1)CN(C(=O)c1ccc(CN)cc1)CC2 |
| > 50 µM (inactive) | CO/C=C/C(=O)c1cc2cnc3c(=N)cc(NC(C)=O)c([nH]1)c23 |
| > 50 µM (inactive) | CN1CCN(C(=O)c2ccn(-c3ccc4ccc(-c5cnn(C)c5)cn34)n2)CC1 |
| > 50 µM (inactive) | Cc1cc(C(=O)Nc2cc(C)n(Cc3ccc(Cl)cc3)n2)no1 |
| > 50 µM (inactive) | O=c1[nH]c2ccccc2cc1CN(Cc1ccco1)S(=O)(=O)c1ccc(F)cc1 |
| > 50 µM (inactive) | Cn1c(=O)[nH]c(=O)c2c1nc1n(CCc3ccccc3)c(-c3ccccc3)cn21 |
